19 compounds from patent US20190152957A1, “PYRIDIN-3-YL ACETIC ACID DERIVATIVES AS INHIBITORS OF HUMAN IMMUNODEFICIENCY VIRUS REPLICATION” (ViiV HEALTHCARE UK (NO.5) LIMITED, priority 2016, published 2019) can be followed below.

Read-outs that look alike come from different tables or passages of the source.

The subject of the experiment is recombinant NL-RLuc virus (HIV NL4-3 with Renilla Luciferase gene) in MT-2 cells. Briefly: Inhibition of HIV replication (NL-RLuc virus, luciferase readout in MT-2 cells). Type of experiment: cell-based. The following applies: MT2, 120 h. An excerpt:
Inhibition of HIV Replication:
A recombinant NL-RLuc proviral clone was constructed in which a section of the nef gene from NL4-3 was replaced with the Renilla Luciferase gene. This virus is fully infectious and can undergo multiple cycles of replication in cell culture. In addition, the luciferous reporter provides a simple and easy method for quantitating the extent of virus growth and consequently, the antiviral activity of test compounds. The plasmid pNLRLuc contains the proviral NL-Rluc DNA cloned into pUC18 at the PvuII site. The NL-RLuc virus was prepared by transfection of 293T cells with the plasmid pNLRLuc. Transfections were performed using the LipofectAMINE PLUS kit from Invitrogen (Carlsbad, Calif.) according to the manufacturer and the virus generated was titered in MT-2 cells. For susceptibility analyses, the titrated virus was used to infect MT-2 cells in the presence of compound, and after 5 days of incubation, cells were processed and quantitated for virus growth by the amount of expressed luciferase. Assay media was RPMI 1640 supplemented with 10% heat inactivated fetal bovine serum (FBS), 100 units/ml penicillin G/100 units/ml streptomycin, 10 mM HEPES buffer pH 7.55 and 2 mM L-glutamine. The results from at least 2 experiments were used to calculate the EC50 values. Luciferase was quantitated using the Dual Luciferase kit from Promega (Madison, Wis.). Susceptibility of viruses to compounds was determined by incubation in the presence of serial dilutions of the compound. The 50% effective concentration (EC50) was calculated by using the exponential form of the median effect equation where (Fa)=1/[1+(ED50/drug conc.)^m](Johnson V A, Byington R T. Infectivity Assay. In Techniques in HIV Research. ed. Aldovini A, Walker BD. 71-76. New York: Stockton Press. 1990). Activity equal to A refers to a compound having an EC50≤100 nM, while B and C denote compounds having an EC50 between 100 nM and 1 uM (B) or >1 uM (C).

For the compound `Cc1nc(C)c([C@H](OC(C)(C)C)C(=O)O)c(N2CCC(C)(C)CC2)c1-c1ccc2c(c1)CCN(Cc1cccnn1)C2` [Compound 36, (S)-2-(tert-butoxy)-2-(4-(4,4-dimethylpiperidin-1-yl)-2,6-dimethyl-5-(2-(pyridazin-3-ylmethyl)-1,2,3,4-tetrahydroisoquinolin-6-yl)pyridin-3-yl)acetic acid], the EC50 (read-out: Activity) was under 0.1 µM.
In the case of `Cc1nn(C)c(Cl)c1CN1CCc2cc(-c3c(C)nc(C)c([C@H](OC(C)(C)C)C(=O)O)c3N3CCC(C)(C)CC3)ccc2C1` [Compound 54, (S)-2-(tert-butoxy)-2-(5-(2-((5-chloro-1,3-dimethyl-1H-pyrazol-4-yl)methyl)-1,2,3,4-tetrahydroisoquinolin-6-yl)-4-(4,4-dimethylpiperidin-1-yl)-2,6-dimethylpyridin-3-yl)acetic acid], where the note is “read-out: Activity”, the EC50 was under 0.1 µM.
Turning to `Cc1nc(C)c([C@H](OC(C)(C)C)C(=O)O)c(N2CCC(C)(C)CC2)c1-c1ccc2c(c1)CCN(CC1C[C@@H]3CC[C@H]1C3)C2` (stereo partly drawn) [Compound 2, (2S)-2-(5-(2-((1S,4R)-bicyclo[2.2.1]heptan-2-ylmethyl)-1,2,3,4-tetrahydroisoquinolin-6-yl)-4-(4,4-dimethylpiperidin-1-yl)-2,6-dimethylpyridin-3-yl)-2-(tert-butoxy)acetic acid], where the note is “read-out: Activity”, the EC50 is under 0.1 µM.
Take `Cc1nc(C)c([C@H](OC(C)(C)C)C(=O)O)c(N2CCC(C)(C)CC2)c1-c1ccc2c(c1)CCN(Cc1ncco1)C2` [Compound 37, (S)-2-(tert-butoxy)-2-(4-(4,4-dimethylpiperidin-1-yl)-2,6-dimethyl-5-(2-(oxazol-2-ylmethyl)-1,2,3,4-tetrahydroisoquinolin-6-yl)pyridin-3-yl)acetic acid]: the EC50 (read-out: Activity) was under 0.1 µM.
`Cc1nc(C)c([C@H](OC(C)(C)C)C(=O)O)c(N2CCC(C)(C)CC2)c1-c1ccc2c(c1)CCN(Cc1ncc[nH]1)C2` [Compound 17, (S)-2-(5-(2-((1H-imidazol-2-yl)methyl)-1,2,3,4-tetrahydroisoquinolin-6-yl)-4-(4,4-dimethylpiperidin-1-yl)-2,6-dimethylpyridin-3-yl)-2-(tert-butoxy)acetic acid]: the EC50 was 0.1 to 1 µM (read-out: Activity) and 0.544 µM (read-out: EC50 μM).
Take `CCN1CCc2cc(-c3c(C)nc(C)c([C@H](OC(C)(C)C)C(=O)O)c3N3CCC(C)(C)CC3)ccc2C1` [Compound 55, (S)-2-(tert-butoxy)-2-(4-(4,4-dimethylpiperidin-1-yl)-5-(2-ethyl-1,2,3,4-tetrahydroisoquinolin-6-yl)-2,6-dimethylpyridin-3-yl)acetic acid]: the EC50 (read-out: Activity) is 0.1 to 1 µM.
Same read-out and setting: the result for `Cc1nc(C)c([C@H](OC(C)(C)C)C(=O)O)c(N2CCC(C)(C)CC2)c1-c1ccc2c(c1)CCN(C[C@H]1C[C@@H]3C=C[C@H]1C3)C2` [Compound 7, (S)-2-(5-(2-((1R,2S,4R)-bicyclo[2.2.1]hept-5-en-2-ylmethyl)-1,2,3,4-tetrahydroisoquinolin-6-yl)-4-(4,4-dimethylpiperidin-1-yl)-2,6-dimethylpyridin-3-yl)-2-(tert-butoxy)acetic acid] reads under 0.1 µM.
For `Cc1nc(C)c([C@H](OC(C)(C)C)C(=O)O)c(N2CCC(C)(C)CC2)c1-c1ccc2c(c1)CCN(Cc1cccnc1)C2` [Compound 11, (S)-2-(tert-butoxy)-2-(4-(4,4-dimethylpiperidin-1-yl)-2,6-dimethyl-5-(2-(pyridin-3-ylmethyl)-1,2,3,4-tetrahydroisoquinolin-6-yl)pyridin-3-yl)acetic acid], the EC50 (read-out: Activity) is under 0.1 µM.
Regarding `COc1ncccc1CN1CCc2cc(-c3c(C)nc(C)c([C@H](OC(C)(C)C)C(=O)O)c3N3CCC(C)(C)CC3)ccc2C1` [Compound 35, (S)-2-(tert-butoxy)-2-(4-(4,4-dimethylpiperidin-1-yl)-5-(2-((2-methoxypyridin-3-yl)methyl)-1,2,3,4-tetrahydroisoquinolin-6-yl)-2,6-dimethylpyridin-3-yl)acetic acid], where the note is “read-out: Activity”, the EC50 is under 0.1 µM.
On the same count and under the same terms, as for `Cc1nc(C)c([C@H](OC(C)(C)C)C(=O)O)c(N2CCC(C)(C)CC2)c1-c1ccc2c(c1)CCN(Cc1[nH]nnc1[Si](C)(C)C)C2` [Compound 51, (S)-2-(tert-butoxy)-2-(4-(4,4-dimethylpiperidin-1-yl)-2,6-dimethyl-5-(2-((4-(trimethylsilyl)-1H-1,2,3-triazol-5-yl)methyl)-1,2,3,4-tetrahydroisoquinolin-6-yl)pyridin-3-yl)acetic acid], the figure is under 0.1 µM; as for `Cc1nc(C)c([C@H](OC(C)(C)C)C(=O)O)c(N2CCC(C)(C)CC2)c1-c1ccc2c(c1)CCN(Cc1c[nH]nn1)C2` [Compound 27, (S)-2-(5-(2-((1H-1,2,3-triazol-4-yl)methyl)-1,2,3,4-tetrahydroisoquinolin-6-yl)-4-(4,4-dimethylpiperidin-1-yl)-2,6-dimethylpyridin-3-yl)-2-(tert-butoxy)acetic acid], 0.1 to 1 µM; as for `Cc1nc(C)c([C@H](OC(C)(C)C)C(=O)O)c(N2CCC(C)(C)CC2)c1-c1ccc2c(c1)CCN(CC1CCOC(C)(C)C1)C2` (stereo partly drawn) [Compound 3, (2S)-2-(tert-butoxy)-2-(4-(4,4-dimethylpiperidin-1-yl)-5-(2-((2,2-dimethyltetrahydro-2H-pyran-4-yl)methyl)-1,2,3,4-tetrahydroisoquinolin-6-yl)-2,6-dimethylpyridin-3-yl)acetic acid], under 0.1 µM.
Turning to `CCn1cncc1CN1CCc2cc(-c3c(C)nc(C)c([C@H](OC(C)(C)C)C(=O)O)c3N3CCC(C)(C)CC3)ccc2C1` [Compound 15, (S)-2-(tert-butoxy)-2-(4-(4,4-dimethylpiperidin-1-yl)-5-(2-((1-ethyl-1H-imidazol-5-yl)methyl)-1,2,3,4-tetrahydroisoquinolin-6-yl)-2,6-dimethylpyridin-3-yl)acetic acid], the EC50 (read-out: Activity) is under 0.1 µM.
Turning to `Cc1ncsc1CN1CCc2cc(-c3c(C)nc(C)c([C@H](OC(C)(C)C)C(=O)O)c3N3CCC(C)(C)CC3)ccc2C1` [Compound 8, (S)-2-(tert-butoxy)-2-(4-(4,4-dimethylpiperidin-1-yl)-2,6-dimethyl-5-(2-((4-methylthiazol-5-yl)methyl)-1,2,3,4-tetrahydroisoquinolin-6-yl)pyridin-3-yl)acetic acid], the EC50 reads like this: (read-out: Activity) under 0.1 µM; (read-out: EC50 μM) 0.002 µM.
Regarding `COc1cc(CN2CCc3cc(-c4c(C)nc(C)c([C@H](OC(C)(C)C)C(=O)O)c4N4CCC(C)(C)CC4)ccc3C2)ccn1` [Compound 31, (S)-2-(tert-butoxy)-2-(4-(4,4-dimethylpiperidin-1-yl)-5-(2-((2-methoxypyridin-4-yl)methyl)-1,2,3,4-tetrahydroisoquinolin-6-yl)-2,6-dimethylpyridin-3-yl)acetic acid], under “read-out: Activity”, the EC50 was under 0.1 µM.
`Cc1nc(C)c([C@H](OC(C)(C)C)C(=O)O)c(N2CCC(C)(C)CC2)c1-c1ccc2c(c1)CCN(Cc1cnc(-c3ccccc3)[nH]1)C2` [Compound 20, (S)-2-(tert-butoxy)-2-(4-(4,4-dimethylpiperidin-1-yl)-2,6-dimethyl-5-(2-((2-phenyl-1H-imidazol-5-yl)methyl)-1,2,3,4-tetrahydroisoquinolin-6-yl)pyridin-3-yl)acetic acid]: the EC50 (read-out: Activity) is under 0.1 µM.
Regarding `Cc1nc(C)c([C@H](OC(C)(C)C)C(=O)O)c(N2CCC(C)(C)CC2)c1-c1ccc2c(c1)CCN(Cc1cccnc1OC(C)C)C2` [Compound 45, (S)-2-(tert-butoxy)-2-(4-(4,4-dimethylpiperidin-1-yl)-5-(2-((2-isopropoxypyridin-3-yl)methyl)-1,2,3,4-tetrahydroisoquinolin-6-yl)-2,6-dimethylpyridin-3-yl)acetic acid], the EC50 (read-out: Activity) is under 0.1 µM.
Take `Cc1nc(C)c([C@H](OC(C)(C)C)C(=O)O)c(N2CCC(C)(C)CC2)c1-c1ccc2c(c1)CCN(Cc1cc(-c3ccccc3)on1)C2` [Compound 25, (S)-2-(tert-butoxy)-2-(4-(4,4-dimethylpiperidin-1-yl)-2,6-dimethyl-5-(2-((5-phenylisoxazol-3-yl)methyl)-1,2,3,4-tetrahydroisoquinolin-6-yl)pyridin-3-yl)acetic acid]: the EC50 (read-out: Activity) was under 0.1 µM and the EC50 (read-out: EC50 μM) was determined as 0.012 µM.
`Cc1nc[nH]c1CN1CCc2cc(-c3c(C)nc(C)c([C@H](OC(C)(C)C)C(=O)O)c3N3CCC(C)(C)CC3)ccc2C1` [Compound 39, (S)-2-(tert-butoxy)-2-(4-(4,4-dimethylpiperidin-1-yl)-2,6-dimethyl-5-(2-((4-methyl-1H-imidazol-5-yl)methyl)-1,2,3,4-tetrahydroisoquinolin-6-yl)pyridin-3-yl)acetic acid]: the EC50 reads like this: (read-out: Activity) 0.1 to 1 µM; (read-out: EC50 μM) 0.231 µM.
